From patent publication US20130224223A1, “Compositions and Methods for Treating Neurological Disorders” (GEORGIA REGENTS UNIVERSITY, priority 2007, published 2013)

How the values were obtained:
[1] = system: PV-Cre;ErbB4−/− and PV-Cre;ErbB4+/+ mice; test: pre-pulse inhibition (PPI) test; assay type: in vivo; conditions: 3 mg/kg
Description: FIG. 16A is a bar graph showing the baseline startle response (startle amplitude) for PV-Cre;ErbB4+/+ (white bar, n=7) and PV-Cre;ErbB4−/− (hatched bar, n=6) mice under no stimulus, 70 dB (−) and startle stimulus, 120 dB (+), respectively; P>0.05). FIG. 16B is bar graph showing pre-pulse inhibition (%) for PV-Cre;ErbB4+/+ (white bar, n=7) and PV-Cre;ErbB4−/− (hatched bar, n=6) mice at three different levels of pre-pulse (75 dB, 80 dB, 85 dB), P=0.004. PPI=100−100%×(PPx/P120), in which PPx was the amplitude of the startle response after each pre-pulse and P120 was basal startle amplitude. FIG. 16C is a bar graph showing pre-pulse inhibition (%) for PV-Cre;ErbB4+/+ and PV-Cre;ErbB4−/− mice at three different levels of pre-pulse (75 dB, white bars) (80 dB, hatched bars), (85 dB, stippled bars), treated with vehicle or 3 mg/kg diazepam. Repeated measures, * P<0.05, # P=0.573. For vehicle treatment, n=10 and 12 for PV-Cre;ErbB4−/− mice and PV-Cre;ErbB4+/+ littermates, respectively; for diazepam treatment, n=9 and 11 for PV-Cre; ErbB4−/− and PV-Cre;ErbB4+/+, respectively. […]

[2] = system: cortical slices; test: [3H]GABA release from prefrontal cortical slices; assay type: cell-based, mice; conditions: 20 mM KCl; for depolarization-evoked [3H]GABA release: substance alone, no other exogenous agent, AG1478/AG879 5 mM [sic]
Protocol: FIG. 2A is a line graph of [^3H]GABA release fraction/total fraction versus time (mins). Cortical slices were preloaded with [^3H]GABA for 30 min in the presence of b-alanine (1 mM), an inhibitor of [^3H]GABA uptake by glial cells, aminooxyacetic acid (0.1 mM), an inhibitor of GABA degradation, and nipecotic acid (1 mM), an inhibitor of the GABA transporter in neurons. Basal and depolarization (20 mM KCl)-evoked release of [^3H]GABA were monitored sequentially. Controls (open circles) and NRG1 (closed circles). FIG. 2B is a line graph of percent [^3H]GABA release versus NRG1 concentration (nM). Basal (open circles) K+ evoked (closed circles). […] FIG. 2D is a line graph of cumulative counts versus mIPSC amplitude (pA). Controls (open circles) and NRG1 (closed circles). FIG. 2E is a line graph of cumulative counts versus mIPSC interevent interval (ms). Controls (open circles) and NRG1 (closed circles). FIG. 2F is a bar graph of mIPSC (percent) in control and NRG1 treated pyramidal neurons in prefrontal cortical slices (n=12). Amplitude (clear) and Frequencies (hatched). FIG. 2G is a bar graph of percent eIPSC amplitude in prefrontal cortical slices treated with NRG1 versus control or washout. n=12, *p<0.01. Representative eIPSCs of control, NRG1-treated, or NRG1-treated/washed slices are shown on top. FIG. 2H is a line graph of percent eIPSC amplitude versus NRG1 (nM). n=6, *p<0.05, **p<0.01. FIG. 2I is a bar graph of K^+ evoked [^3H]GABA release (percent) (left axis, clear rectangles) and eIPSC amplitude (percent) (right axis, hatched rectangles) in prefrontal cortical slices treated with NRG1, denature NRG1, or BDNF. n=8 for [^3H]GABA release; for eIPSCs, n=6 for control, NRG1, and denatured NRG1, and n=4 for BDNF. *p<0.05, #p<0.05; **p<0.05, ##<0.01.
NRG1 may regulate GABAergic neurotransmission. To test this hypothesis, the effects of NRG1 on GABA release in cortical slices were determined by both biochemical and electrophysiological approaches. Basal [^3H]GABA release was low, at a rate of 3.75±0.35% (n=8) of total radioactivity per 10 min (FIG. 2A). Treatment of slices with 20 mM KCl, a condition known to depolarize neurons, increased [^3H]GABA release by 2.5-3.5 folds within 10 min (FIG. 2A). NRG1 had no effect on basal [^3H]GABA release; by contrast, it increased depolarization-evoked GABA release in a dose-dependent manner (FIG. 2B). […] Furthermore, the NRG regulation remained unchanged in the presence of antagonists of metabotropic glutamate receptors, cholinergic receptors, serotonin receptors, adrenergic receptors and/or dopamine receptors. As a control, BDNF decreased depolarization-evoked GABA release and eIPSCs in cortical slices, in agreement with earlier studies (Canas, et al., Brain Res, 1016:72-78 (2004); Frerking, et al., J Neurophysiol, 80:3383-3386 (1998)).

[3] = system: prefrontal cortical slices; test: eIPSC recording in prefrontal cortical slices; assay type: cell-based, mice; conditions: for evoked IPSCs (eIPSCs): substance alone, no other exogenous agent, AG1478/AG879 5 mM [sic]
Protocol: Transverse prefrontal cortical slices (0.3 mm) were prepared from P28-P36 mice using a Vibroslice (Leica VT 10005) in the ice-cold solution, which contained 2.5 mM KCl, 1.25 mM NaH2PO4, 10 mM MgSO4, 0.5 mMCaCl2, 26 mM NaHCO3, 10 mM glucose, and 230 mM sucrose. Slices were allowed to recover for at least 2 hr in ACSF (1 hr at 34° C. followed by 1 hr at 22° C.) in a solution containing 126 mM NaCl, 2.5 mM KCl, 1.25 mM NaH2PO4, 2 mM MgSO4, 2 mM CaCl2, 26 mM NaHCO3, and 10 mM glucose. Slices were placed in the recording chamber and superfused (1.5 ml/min) with ACSF at 34° C. All solutions were saturated with 95% O2/5% CO2. Neurons were visualized with an IR-sensitive CCD camera with a 403 water-immersion lens (Zeiss, Axioskop2 Fsplus) and recorded using whole-cell voltage-clamp techniques (MultiClamp 7008 Amplifier, Digidata 1320A analog-to-digital converter) and pClamp 9.2 software (Axon Instruments). Glass pipettes were filled with the solution containing 125 mM Cs-gluconate, 10 mM CsCl, 1 mM MgCl2, 10 mM HEPES, 1 mM EGTA, 0.1 mM CaCl2, 10 mM sodium phosphocreatine, 4 mM Mg-ATP, 0.3 mM GTP, 0.2 mM leupeptin, and 5 mM lidocaine N-ethylchloride (QX314) (pH 7.2, with the osmolarity adjusted to 280 mOsm with sucrose). The resistance of pipettes was 2-3 MΩ For mIPSC recording, QX314 was omitted in the pipette filling solution, whereas […] was included in the superfusing solution. eIPSCs were generated with a two-concentric bipolar stimulating electrode ([…] pole separation; FHC, ME) positioned about […] from the neuron under recording. Single or paired pulses of 0.2 ms were delivered at 0.1 Hz and synchronized using a Mater-8 stimulator (A.M.P.I). The holding potential for both mIPSCs and eIPSCs was −65 mV. All experiments were done at 34° C. in the presence of 6-cyano-7-nitroquinoxaline-2,3-dione (CNQX, […]) and AP-5 ([…]) to block AMPA/NMDA receptors. Data were collected when series resistance fluctuated within 15% of initial values (8-15 MU), they were filtered at 2 kHz, and they were sampled at 10 kHz.

| Molecule | PPI in PV-Cre;ErbB4−/− mice ([1]; acute administration, mutant mice) | PPI in control mice ([1]; after 30-min treatment, PV-Cre;ErbB4+/+ littermates) | depolarization-evoked [3H]GABA release [2] | NRG1-enhanced evoked GABA release ([2]; substance given with exogenous NRG1) | evoked IPSCs (eIPSCs) [3] | NRG1 potentiation of eIPSCs ([3]; substance given with exogenous NRG1 (5 nM)) |
| --- | --- | --- | --- | --- | --- | --- |
| CN1C(=O)CN=C(c2ccccc2)c2cc(Cl)ccc21 [diazepam] | significantly enhanced | no effect | – | – | – | – |
| CC(C)(C)c1cc(/C=C(\C#N)C(N)=S)cc(C(C)(C)C)c1O [AG879] | – | – | no detectable effect | no detectable effect | no detectable effect | no detectable effect |
| BDNF: BDNF, a gift from Regeneron; used as a control (protein, UniProt P23560 19-247, looked up) Neurotrophic factor BDNF …: APMKEANIRGQGGLAYPGVRTHGTLESVNGPKAGSRGLTSLADTFEHVIEELLDEDQKVRPNEENNKDADLYTSRVMLSSQVPLEPPLLFLLEEYKNYLDAANMSMRVRRHSDPARRGELSVCDSISEWVTAADKKTAVDMSGGTVTVLEKVPVSKGQLKQYFYETKCNPMGYTKEGCRGIDKRHWNSQCRTTQSYVRALTMDSKKRIGWRFIRIDTSCVCTLTIKRGR | – | – | decreased | – | decreased | – |
